Experimental data reported in patent US20240306640A1, “BIOCIDAL MIXTURES” (LANXESS Deutschland GmbH, priority 2021, published 2024).

Assays:
Assay in all cases: MIC, suppression of radial hyphal growth on malt extract nutrient agar
Type in all cases: cell-based
[1] = tested on: Aspergillus niger; conditions: Example 3 synergism test, 26° C., read-out: MIC (ppm) Aspergillus niger
Procedure: (§1) Pieces of mycelium were punched out of a colony of the appropriate mold and incubated at 26° C. on a nutrient agar containing malt extract. Here, hyphal growth with and without active ingredient was compared.
(§2) The synergism was determined according to the method described by Kull et al. (F. C. Kull, P. C. Eismann, H. D. Sylvestrowicz, R. L. Mayer, Applied Microbiology 1961, 9, 538-541). The following relationships apply:
(§3) [formula] • SI=1 means additivity • SI>1 means antagonism • SI<1 means synergism • Qa=concentration of substance A which is the MIC • Qb=concentration of substance B which is the MIC • QA=concentration of substance A in the concentration of A/B at which microbial growth is suppressed • Qb=concentration of substance B in the concentration of A/B at which microbial growth is suppressed 3.1 Combinations of AZO and IPBC Against the Molds Aspergillus niger and Aspergillus versicolor

[2] = tested on: Aspergillus versicolor; conditions: Example 3 synergism test, 26° C., read-out: MIC (ppm) Aspergillus versicolor
Procedure: as §1, §2, §3

[3] = tested on: Cladosporium cladosporioides; conditions: Example 3 synergism test, 26° C., read-out: MIC against Cladosporium cladosporioides (ppm)
Procedure: (§4) For this purpose, pieces of mycelium were punched out of a colony of the appropriate mold and incubated at 26° C. on a nutrient agar containing malt extract. Here, hyphal growth with and without active ingredient was compared.
as §1, §2, §3

[4] = tested on: Stachybotrys chartarum; conditions: Example 3 synergism test, 26° C., read-out: MIC against Stachybotrys chartarum (ppm)
Procedure: as §4, §1, §2, §3

[5] = tested on: Trichoderma virens; conditions: Example 3 synergism test, 26° C., read-out: MIC against Trichoderma virens (ppm)
Procedure: as §4, §1, §2, §3

CO/C=C(/C(=O)OC)c1ccccc1Oc1cc(Oc2ccccc2C#N)ncn1 [AZO, methyl (E)-2-{2-[6-(2-cyanophenoxy)pyrimidin-4-yloxy]phenyl}-3-methoxyacrylate]
MIC [1]: 5000 µg/mL | MIC [2]: 100 µg/mL | MIC [3]: 5 µg/mL | MIC [4]: 100 µg/mL | MIC [5]: 1000 µg/mL
